Laboratory results as given in PubChem BioAssay AID2060888 (Molecular Pharmacology Branch, DTP, NCI, 2025).
“And” between values parts separate entries of the source, which are not always exact repeats. Equal values may be shown once.

Test system: 695427-040-R-J1-PDC complex spheroid viability
Assay: Anticancer human tumor 695427-040-R-J1-PDC patient-derived colon adenocarcinoma cell line growth inhibition [RAS]
Details: for viability, T/C: stronger effect = lower value
Excerpt: RAS pathway inhibitors in Combinations in Complex Spheroids
A high-throughput screen of multi-cell type tumor spheroids was designed to identify active combinations of RAS pathway inhibitors and targeted small molecules. Complex spheroids include a stromal component modeled by human endothelial cells (HUVEC) and fibroblasts modeled by human mesenchymal stem cells (MSCs). The concentration ranges selected for each drug and investigational agent were based upon clinically achievable concentrations if the clinical Cmax of the agent was known.
Compounds. The drugs and investigational agents: abemaciclib (NSC768073), cobimetinib (NSC768068), divarasib (GDC6063, NSC841802), docetaxel (NSC628503), GDC-1971 (RLY-1971, NSC841576), gemcitabine (NSC613327), inavolisib (NSC800729), ipatasertib (NSC767898), KB-0742 (NSC834161), MRTX-1133 (NSC836407), osimertinib (NSC779217), RMC-4630 (NSC839698), RMC-6236 (NSC851965), RMC-6291 (NSC852671), Ro-3306 (NSC812927), sapanisertib (NSC764658), SN-38 (NSC673596), staurosporine (NSC755774), SY5609 (NSC837396), and tovorafenib (DAY101, NSC766906), were obtained from the National Cancer Institute (NCI) Developmental Therapeutics Program Chemical Repository. The FDA-approved anticancer drug set is available from the NCI Developmental Therapeutics Program. […] The stock solutions were prepared in dimethyl sulfoxide (DMSO, Sigma-Aldrich, St. Louis, MO, cat. D2650) at 800-fold the tested concentration and stored at -70 degrees C prior to their use. All drugs and investigational agents were tested over a range starting from a high concentration at or near the clinical Cmax and decreasing in half-log increments. If the clinical Cmax for an agent had not been determined, the highest concentration tested was 10 microM.
Cell Culture. All cells were maintained in an incubator at 37 degrees C and 5% CO2 with 95% humidity. The PDC lines were cultured according to standard operating procedures established by the NCI PDMR. All PDCs were thawed and cultured in Matrigel-coated flasks prepared with a working solution of 1X Ham's F-12 nutrient mix, without supplementation (Invitrogen, Waltham, MA, cat. 11765054), 100 U/mL penicillin-streptomycin (Invitrogen, cat. 15140122), and 2.5% Matrigel (Corning Inc., Corning, NY, cat. 354248) for the first three passages. The 362531-283-R-J2-PDC and 782815-120-R-J1-PDC lines were cultured in 6C/Colon 1B media, which includes advanced DMEM/F-12 (Thermo Fisher Scientific, cat. 12634028), 10 mM HEPES (Thermo Fisher Scientific, cat. 15630080), 1X GlutaMAX supplement (Thermo Fisher Scientific, cat. 35050061), 0.1 mg/mL primocin (InvivoGen, San Diego, CA, cat. ant-pm-2), 10% defined fetal bovine serum, heat inactivated (HyClone Laboratories Inc., Logan, UT, cat. SH30070.03HI), 50% L-WRN conditioned media (ATCC, cat. CRL-3276), 1.25 mM N-Acetyl-L-cysteine (Sigma-Aldrich, cat. A9165), 10 mM nicotinamide (Sigma-Aldrich, cat. N0636), 1X B-27 supplement (Thermo Fisher Scientific, cat. 17504044), 1X N-2 supplement (Thermo Fisher Scientific, cat. 17502048), 50 ng/mL human EGF (Thermo Fisher Scientific, cat. PHG0311), and 10 microM Y-27632 dihydrochloride (Tocris Bioscience, cat. 1254). The K12877-001-R-J1-PDC line was cultured in 6I media, which includes all 6C/Colon 1B media plus 10 ng/mL human FGF-10 (PeproTech, cat. 100-26), 1 ng/mL human FGF-2 (PeproTech, cat. 100-18B), 1 µM prostaglandin E2 (Tocris Bioscience, cat. 2296), […] hydrocortisone (Sigma-Aldrich, cat. H4001), and […] bovine insulin (Sigma-Aldrich, cat. I6634). The K86415-001-R-J1-PDC line was cultured in 6D media, which includes all 6C/Colon 1B media components minus the L-WRN conditioned media. The 485176-168-R4-J1-PDC was cultured in PANC media, which includes all 6C/Colon 1B media plus 100 ng/mL human FGF-10 (PeproTech, cat. 100-26), 500 nM SB-431542 (Selleckchem, cat. S1067), and 10 nM gastrin (Tocris Bioscience, cat. 3006). […]
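Note: viability read after seven days of drug exposure.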
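Throughout, for viability, T/C: 100% = DMSO vehicle control viability.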

In the case of `CC(C)NCC(C(=O)N1CCN(c2ncnc3c2C(C)CC3O)CC1)c1ccc(Cl)cc1` (stereo unspecified), the viability, T/C (compound 0.0316 µM) is reported as 102% [middle of 4 runs], the viability, T/C (compound 0.316 µM) is reported as 96.3% [middle of 4 runs] and the viability, T/C (compound 1 µM) is reported as 88.8% [middle of 4 runs]. For the same molecule, the IC50 (curve of compound) was > 10 µM and 10 µM.

`O=C(c1ccc(F)c(F)c1Nc1ccc(I)cc1F)N1CC(O)([C@@H]2CCCCN2)C1` + C=CC(=O)N1CCN(c2nc(OCC3CCCN3C)nc3c(F)c(-c4nc(N)cc(C)c4C(F)(F)F)c(Cl)cc23)C(C)C1 was tested, and the IC50 (curve of first compound, second compound 0.00316 µM) was 0.037 µM, the IC50 (curve of first compound, second compound 0.01 µM) was 0.0398 µM and the IC50 (curve of first compound, second compound 0.0316 µM) was 0.0396 µM. The IC50 (curve of first compound, second compound 0.1 µM) was 0.0463 µM, the IC50 (curve of first compound, second compound 0.316 µM) was 0.0466 µM and the IC50 (curve of first compound, second compound 1 µM) was 0.0564 µM. For the same molecule, the viability, T/C (second compound 0.00316 µM, first compound 0.00316 µM) was 81.5%, the viability, T/C (second compound 0.00316 µM, first compound 0.01 µM) was 75.2% and the viability, T/C (second compound 0.00316 µM, first compound 0.0316 µM) was 50.1%. The viability, T/C (second compound 0.00316 µM, first compound 0.1 µM) was 32.4%, the viability, T/C (second compound 0.00316 µM, first compound 0.316 µM) was 13.7% and the viability, T/C (second compound 0.00316 µM, first compound 1 µM) was 6.97%. It also gave a viability, T/C (second compound 0.01 µM, first compound 0.00316 µM) of 85.8%, a viability, T/C (second compound 0.01 µM, first compound 0.01 µM) of 74.7% and a viability, T/C (second compound 0.01 µM, first compound 0.0316 µM) of 54.9%. The viability, T/C (second compound 0.01 µM, first compound 0.1 µM) was 30.2%, the viability, T/C (second compound 0.01 µM, first compound 0.316 µM) was 15.9% and the viability, T/C (second compound 0.01 µM, first compound 1 µM) was 2.53%. The viability, T/C (second compound 0.0316 µM, first compound 0.00316 µM) was 86.5%, the viability, T/C (second compound 0.0316 µM, first compound 0.01 µM) was 72% and the viability, T/C (second compound 0.0316 µM, first compound 0.0316 µM) was 58%. For the same molecule, the viability, T/C (second compound 0.0316 µM, first compound 0.1 µM) was 27.8%, the viability, T/C (second compound 0.0316 µM, first compound 0.316 µM) was 15.4% and the viability, T/C (second compound 0.0316 µM, first compound 1 µM) was 4.49%. For the same molecule, the viability, T/C (second compound 0.1 µM, first compound 0.00316 µM) was 87.7%, the viability, T/C (second compound 0.1 µM, first compound 0.01 µM) was 73.1% and the viability, T/C (second compound 0.1 µM, first compound 0.0316 µM) was 60.8%. The viability, T/C (second compound 0.1 µM, first compound 0.1 µM) was 32.6%, the viability, T/C (second compound 0.1 µM, first compound 0.316 µM) was 16.4% and the viability, T/C (second compound 0.1 µM, first compound 1 µM) was 5.49%. For the same molecule, the viability, T/C (second compound 0.316 µM, first compound 0.00316 µM) was 82.8%, the viability, T/C (second compound 0.316 µM, first compound 0.01 µM) was 86.4% and the viability, T/C (second compound 0.316 µM, first compound 0.0316 µM) was 55.4%. It also gave a viability, T/C (second compound 0.316 µM, first compound 0.1 µM) of 31.6%, a viability, T/C (second compound 0.316 µM, first compound 0.316 µM) of 15.2% and a viability, T/C (second compound 0.316 µM, first compound 1 µM) of 2.92%. For the same molecule, the viability, T/C (second compound 1 µM, first compound 0.00316 µM) was 78.8%, the viability, T/C (second compound 1 µM, first compound 0.01 µM) was 81.7% and the viability, T/C (second compound 1 µM, first compound 0.0316 µM) was 60.2%. The viability, T/C (second compound 1 µM, first compound 0.1 µM) was 37.8%, the viability, T/C (second compound 1 µM, first compound 0.316 µM) was 15.1% and the viability, T/C (second compound 1 µM, first compound 1 µM) was 3.14%.
